{"source": "patent US20230279346A1", "about": "“METHODS OF DIFFERENTIATION TO NEURONAL CELLS AND KITS THEREFOR” (priority 2016, published 2023)", "key": {"H9 ESC-derived NSCs [1]": {"tested_on": "H9 ESC-derived NSCs", "experiment": "Cell clump area after neuronal differentiation (INCUCYTE ZOOM System)", "assay_type": "cell-based, human", "settings": "for cell clumping vs control group (cell clump area, FIG. 6): two weeks, Compound E 0.2, YO-01027 0.3, LY411575 0.25, MK-0752 20 micromolar, p<0.01", "procedure": "Also, at the end of that two week period of differentiation, the area of cell clumps was calculated using the [sequence] ZOOM™ System (Essen BioScience, Ann Arbor Mich.) by defining the area of cell mass ≥10,000 μm^2 as a cell clump.\n(§3) Cells cultured in differentiation medium without the presence of the gamma-secretase inhibitor served as a control. In the test groups, cells were separately differentiated in the presence of Compound E at 0.2 micromolar, YO-01027 at concentrations of 0.3 micromolar, 1.5 micromolar and 7.5 micromolar, LY411575 at concentrations of 0.01 micromolar, 0.05 micromolar, 0.25 micromolar, 0.5 micromolar, 1.0 micromolar and 2.0 micromolar, and MK-0752 at concentrations of 0.8 micromolar, 4 micromolar, 20 micromolar, 40 micromolar and at 80 micromolar. Eight wells were tested for each concentration of each inhibitor.\nAt the end of a two week period of differentiation, the area of cell clumps was calculated for each test well using the [sequence] ZOOM™ System (Essen BioScience, Ann Arbor Mich.) by defining the area of cell mass ≥10,000 μm2 as a cell clump and the data plotted in FIG. 6."}, "H9 ESC-derived NSCs [2]": {"tested_on": "H9 ESC-derived NSCs", "experiment": "Immunofluorescent image analysis: cells positive for HuC/D and negative for SOX1", "assay_type": "cell-based, human", "source_text": "as §3"}, "H9 ESC-derived NSCs [3]": {"tested_on": "H9 ESC-derived NSCs", "experiment": "Cell toxicity during differentiation of NSCs", "assay_type": "cell-based, human", "settings": "160 micromolar", "source_text": "as §3\nAt the end of a two week period of differentiation, the area of cell clumps was calculated for each test well using the [sequence]"}, "H9 ESC-derived NSCs [4]": {"tested_on": "H9 ESC-derived NSCs", "experiment": "EdU incorporation proliferation assay (CLICK-IT EdU)", "assay_type": "cell-based, human", "settings": "Day 6 of differentiation, EdU 24 h; 0.2 micromolar", "description": "(§1) Differentiation of H9 ESC-derived NSCs was the same as for Example 2. At Day 6 of differentiation, cells were incubated with the nucleoside thymidine analog EdU for 24 h. EdU is incorporated into DNA during active DNA synthesis with the result that proliferating cells become labeled. EdU positive cells were detected using the CLICK-IT™ EdU Alexa FLUOR™ 488 HCS Assay (Cat. No. C10350, Thermo Fisher Scientific, Waltham Mass.) according to the manufacturer's protocols. Cells were then fixed with 4% paraformaldehyde and stained with antibodies against the apoptotic cell death marker caspase 9 (polyclonal, Cat. No. PA5-16358, Thermo Fisher Scientific, Waltham Mass.) according to the manufacturer's protocol."}, "H9 ESC-derived NSCs [5]": {"tested_on": "H9 ESC-derived NSCs", "experiment": "Caspase 9 staining for apoptotic cell death", "assay_type": "cell-based, human", "settings": "six days of differentiation; 0.2 micromolar", "description": "as §1"}, "NSC cultures": {"tested_on": "NSC cultures", "experiment": "CYQUANT Direct Cell Proliferation Assay", "assay_type": "cell-based", "description": "The proliferation and electrophysiology of cells resulting from differentiation in the presence of Compound E were compared to NSC control cultures. NSC cultures were plated at 20,000 cells per well on Day 0.\nThe CYQUANT™ Direct Cell Proliferation Assay (Molecular Probes Cat. No. C35011, Eugene Oreg.) was used to provide quantitation of proliferation at Day 4 and Day 7 of culture."}, "[6]": {"tested_on": "primary rat cortical neuronal cells", "experiment": "Differentiation of primary rat cortical neuronal cells, GFAP and HuC&D staining", "assay_type": "cell-based", "settings": "two weeks of differentiation", "excerpt": "Cryopreserved primary rat cortical neuronal cells (Cat. No. A1084001, Thermo Fisher Scientific, Waltham Mass.), which had been isolated from rodent embryonic brain, were thawed and plated on poly-D-lysine 96-well plates (Cat. No. 08-774-255, Thermo Fisher Scientific, Waltham Mass.) coated with laminin (Cat. No. 23017, Thermo Fisher Scientific, Waltham Mass.) at a density of 8×10^4 cells/cm2. The culture medium was neuronal differentiation medium containing NEUROBASAL™ Medium (Cat. No. 21103, Thermo Fisher Scientific, Waltham Mass.), 2% B27 Supplement (Cat. No. 17504, Thermo Fisher Scientific, Waltham Mass.), 1% GLUTAMAX™ Supplement (Cat. No. 35050, Thermo Fisher Scientific, Waltham Mass.) without or with gamma secretase inhibitor Compound E. Every 2-3 days, half spent medium was removed from each well of the culture plates and the same volume of fresh medium was added into each well. At two weeks of differentiation, cells were fixed with 4% paraformaldehyde and stained with antibodies against neuronal marker HuC&D and astroglial marker glial fibrillary acidic protein (GFAP)."}, "iPSC-derived NSCs": {"tested_on": "iPSC-derived NSCs", "experiment": "Differentiation of iPSC-derived NSCs, phase images and NESTIN/DCX staining", "assay_type": "cell-based, human", "settings": "0.1 micromolar", "excerpt": "Human induced pluripotent stem cells were derived from human fibroblasts using the CYTOTUNE™-iPS 2.0 Sendai Reprogramming Kit (Cat. No. A16517, INVITROGEN™, a part of Thermo Fisher Scientific, Waltham Mass.) and were induced to neural stem cells (NSCs) using the xeno free version of the GIBCO™ PSC Neural Induction Medium (Cat. No. A1647801, Thermo Fisher Scientific, Waltham Mass.).\nTo differentiate the NSCs into neuronal cells, cryo-preserved iPSC-derived NSCs were recovered and NSC passage three cells were plated on a 24 well plate (Cat. No. 087721, Thermo Fisher Scientific, Waltham Mass.) coated with human laminin (Cat. No. L6274, Sigma-Aldrich, St. Louis Mo.) at a density of 1˜5×10^4 cells/cm2. The cultures were maintained in neuronal differentiation medium containing NEUROBASAL™ Medium (Cat. No. 21103, Thermo Fisher Scientific, Waltham Mass.), 2% B27 Xeno Free Supplement (Cat. No. A1486701, Thermo Fisher Scientific, Waltham Mass.), 200 micromolar ascorbic acid (Cat. No. A8960, Sigma-Aldrich, St. Louis Mo.) with or without the gamma-secretase inhibitor Compound E (0.1 micromolar, Cat. No. 565790, EMD Millipore, Billerica Mass.). Every 2-3 days, medium was replenished with respective medium.\n[…] No. 48-1200, Thermo Fisher Scientific, Waltham Mass.) and the neural stem cell marker NESTIN (Monoclonal, Cat. No. 611658, BD Biosciences, Franklin Lakes N.J.) according to the manufacturers' protocols."}, "H9 ESC-derived NSCs [7]": {"tested_on": "H9 ESC-derived NSCs", "experiment": "Long-term maintenance of differentiated neuronal cells", "assay_type": "cell-based, human", "settings": "0.2 micromolar; without inhibitor cells detached at three weeks", "excerpt": "(§2) To differentiate the NSCs into neuronal cells, cryo-preserved H9 ESC-derived NSCs were thawed and plated on poly-D-lysine 96-well plates (Cat. No. 08-774-255, Thermo Fisher Scientific, Waltham Mass.) coated with laminin (Cat. No. 23017, Thermo Fisher Scientific, Waltham Mass.) at a density of 5×10^4 cells/cm2. The cultures were maintained in the neuronal differentiation medium containing NEUROBASAL™ Medium (Cat. No. 21103, Thermo Fisher Scientific, Waltham Mass.), 2% B27 Supplement (Cat. No. 17504, Thermo Fisher Scientific, Waltham Mass.), 1% GLUTAMAX™ Supplement (Cat. No. 35050, Thermo Fisher Scientific, Waltham Mass.) and 200 micromolar ascorbic acid (Cat. No. A8960, Sigma-Aldrich, St. Louis Mo.) with or without the gamma-secretase inhibitor Compound E (0.2 micromolar, Cat. No. 565790, EMD Millipore, Billerica Mass.). Every 2-3 days, half spent medium was removed from each well of the culture plates and the same volume of fresh medium was added into each well.\nFor this study, the differentiation of H9 ESC-derived NSCs was the same as for Example 2. Without presence of the gamma secretase inhibitor during differentiation, neuronal cells detached from the culture plate at three weeks after differentiation as shown by the image of FIG. 7A. This effect may be due to the very high density of proliferated neural stem cells present. […]"}, "[8]": {"tested_on": "H9 human ESC-derived NSCs", "experiment": "Differentiation of H9 ESC-derived NSCs, phase-contrast images and MAP2/SOX1 staining", "assay_type": "cell-based", "settings": "Day 14; 0.2 micromolar", "excerpt": "as §2\nAt two weeks of NSC differentiation into neuronal cells, cells were fixed with 4% paraformaldehyde and stained with antibodies against neuronal marker MAP2 (polyclonal, Cat. No. PA5-17646, Thermo Fisher Scientific, Waltham Mass.) and neural stem cell marker SOX1 (polyclonal, Cat. No. AF3369, R&D Systems, Minneapolis Minn.) according to the manufacturers' protocols."}}}
{"compound": "C[C@H](NC(=O)[C@@H](O)c1cc(F)cc(F)c1)C(=O)N[C@@H]1C(=O)N(C)c2ccccc2-c2ccccc21", "note": "[LY411575, N-2((2S)-2-(3,5-difluorophenyl)-2-hydroxyethanoyl)-N1-((7S)-5-methyl-6-oxo-6,7-dihydro-5H-dibenzo[b,d]azepin-7-yl)-1-alaninamide]", "values": [{"measurement": "cell clumping vs control group (cell clump area, FIG. 6)", "setting": "H9 ESC-derived NSCs [1]", "value": "significant reduction in cell clumping"}, {"measurement": "percentage of cells co-stained positive for HuC/D and negative for SOX1", "setting": "H9 ESC-derived NSCs [2]; at 0.25 micromolar", "value": 64.7, "unit": "%"}]}
{"compound": "C[C@H](NC(=O)Cc1cc(F)cc(F)c1)C(=O)N[C@H]1N=C(c2ccccc2)c2ccccc2N(C)C1=O", "note": "[YO-01027, (S,S)-2-[2-(3,5-difluorophenyl)-acetylamino]-N-(1-methyl-2-oxo-5-phenyl-2-,3-dihydro-1H-benzo[e][1,4]diazepin-3-yl)-propionamide]", "values": [{"measurement": "percentage of cells co-stained positive for HuC/D and negative for SOX1", "setting": "H9 ESC-derived NSCs [2]; at 0.3 micromolar", "value": 73.4, "unit": "%"}]}
{"compound": "O=C(O)CC[C@H]1CC[C@@](c2cc(F)ccc2F)(S(=O)(=O)c2ccc(Cl)cc2)CC1", "note": "[MK-0752]", "values": [{"measurement": "cell clumping vs control group (cell clump area, FIG. 6)", "setting": "H9 ESC-derived NSCs [1]", "value": "significant reduction in cell clumping"}, {"measurement": "percentage of cells co-stained positive for HuC/D and negative for SOX1", "setting": "H9 ESC-derived NSCs [2]; at 20 micromolar", "value": 64.7, "unit": "%"}, {"measurement": "cell toxicity", "setting": "H9 ESC-derived NSCs [3]", "value": "cell toxicity"}]}
{"compound": "C[C@H](NC(=O)Cc1cc(F)cc(F)c1)C(=O)N[C@H]1N=C(c2ccccc2)c2ccccc2N(C)C1=O", "note": "[Compound E, (S,S)-2-[2-(3,5-difluorophenyl)-acetylamino]-N-(1-methyl-2-oxo-5-phenyl-2-,3-dihydro-1H-benzo[e][1,4]diazepin-3-yl)-propionamide]", "values": [{"measurement": "reduction in cell clumping", "setting": "H9 ESC-derived NSCs [1]; Compound E 0.2 micromolar, two weeks of differentiation, cell mass >=10,000 μm2 counted as clump, vs without inhibitor", "value": 90, "unit": "%"}, {"measurement": "cell clumping vs control group (cell clump area, FIG. 6)", "setting": "H9 ESC-derived NSCs [1]", "value": "significant reduction in cell clumping"}, {"measurement": "percentage of cells co-stained positive for HuC/D and negative for SOX1", "setting": "H9 ESC-derived NSCs [2]; at 0.2 micromolar", "value": 74.9, "unit": "%"}, {"measurement": "proliferation of neural stem cells (EdU positive cells)", "setting": "H9 ESC-derived NSCs [4]", "value": "substantially arrested"}, {"measurement": "cell death (caspase 9 positive cells)", "setting": "H9 ESC-derived NSCs [5]", "value": "no significant amount of cell death"}, {"measurement": "reduction in cell count vs control culture", "setting": "NSC cultures; Day 4", "value": "~2.5", "unit": "fold"}, {"measurement": "relative fluorescence units (cell proliferation)", "setting": "NSC cultures; Day 4, control 0.93", "value": 0.36, "unit": "RFU"}, {"measurement": "relative fluorescence units (cell proliferation)", "setting": "NSC cultures; Day 7, control 2.94", "value": 0.55, "unit": "RFU"}, {"measurement": "increase in RFU at Day 7 compared to Day 4", "setting": "NSC cultures; Day 7 vs Day 4", "value": "~1.5", "unit": "fold"}, {"measurement": "relative fluorescence units (cell proliferation)", "setting": "NSC cultures; Day 14, control 18.7", "value": 0.41, "unit": "RFU"}, {"measurement": "relative fluorescence units (cell proliferation)", "setting": "NSC cultures; Day 21, control 21.5", "value": 0.30, "unit": "RFU"}, {"measurement": "GFAP positive astrocytes", "setting": "[6]", "value": "essentially eliminated"}, {"measurement": "neurite outgrowth (phase-contrast)", "setting": "iPSC-derived NSCs; Day 5", "value": "extended neurite outgrowth"}, {"measurement": "neuronal phenotype (DCX stain)", "setting": "iPSC-derived NSCs; Day 7", "value": "most of the cells present have adopted a neuronal phenotype"}, {"measurement": "proliferation of NESTIN positive cells", "setting": "iPSC-derived NSCs; Day 7", "value": "substantially retarded"}, {"measurement": "proliferating progenitor cells", "setting": "iPSC-derived NSCs; Day 14", "value": "fewer proliferating progenitor cells are present"}, {"measurement": "time differentiated neuronal cells can be maintained in culture", "setting": "H9 ESC-derived NSCs [7]", "value": "at least five weeks"}, {"measurement": "cell clump formation (phase-contrast image)", "setting": "[8]", "value": "without formation of cell clumps"}]}
